Molecule `Cc1nc2ccc(C(=O)NS(=O)(=O)c3ccccc3)nc2n1Cc1ccc(-c2ccccc2)cc1Cl` [Example 29-1, 5-benzenesulfonylcarbamoyl-3-(2-chloro-4-phenylbenzyl)-2-methyl-3H-imidazo[4,5-b]pyridine] yielded a melting point of 204 to 214 °C.

In the case of `Cc1nc2ccc(C(=O)NS(=O)(=O)/C=C/c3ccccc3)nc2n1Cc1ccc(C(F)(F)F)cc1Cl` [Example 109-1, (E)-3-(2-chloro-4-(trifluoromethyl)benzyl)-2-methyl-5-((2-phenylethenyl)sulfonylcarbamoyl)-3H-imidazo[4,5-b]pyridine], the melting point lay within 140 to 142 °C.

For `CCCCCS(=O)(=O)NC(=O)c1cc(C)c2nc(CC)n(Cc3ccc(Cl)cc3Cl)c2n1` [Example 15, 3-(2,4-dichlorobenzyl)-2-ethyl-7-methyl-5-(n-pentanesulfonylcarbamoyl)-3H-imidazo[4,5-b]pyridine], the melting point fell in the range of 178 to 180 °C.

`CCCCCS(=O)(=O)NC(=O)c1ccc2[nH]c(C)c(Cc3ccc(Cl)cc3Cl)c2n1` [Example 26-1, 3-(2,4-dichlorobenzyl)-2-methyl-5-(n-pentanesulfonylcarbamoyl)pyrrolo[3,2-b]pyridine]: the melting point was 147 to 148 °C.

`CNC(=O)c1ccc(Cn2c(C)nc3ccc(C(=O)NS(=O)(=O)c4ccccc4)nc32)c(Cl)c1` [Example 120, 5-(Benzenesulfonylcarbamoyl)-3-(2-chloro-4-(methylcarbamoyl)benzyl)-2-methyl-3H-imidazo[4,5-b]pyridine] yielded a melting point of 257 to 260 °C.

As for `Cc1nc2ccc(C(=O)NS(=O)(=O)c3ccccc3)nc2n1Cc1ccc(Cl)cc1Cl` [Example 8-3, 5-benzenesulfonylcarbamoyl-3-(2,4-dichlorobenzyl)-2-methyl-3H-imidazo[4,5-b]pyridine], the melting point fell in the range of 193 to 194 °C.

Regarding `CCc1c(Cc2ccc(Cl)cc2Cl)sc2c(C(=O)NS(=O)(=O)c3ccccc3)cccc12` [Example 38-2, 7-(benzenesulfonylcarbamoyl)-2-(2,4-dichlorobenzyl)-3-ethylbenzo[b]thiophene], the melting point is 181 to 183 °C.

Regarding `CCCCCS(=O)(=O)NC(=O)c1ccc2nc(C)n(Cc3ccc(CC)cc3Cl)c2n1` [Example 70-1, 3-(2-chloro-4-ethylbenzyl)-2-methyl-5-(1-pentanesulfonylcarbamoyl)-3H-imidazo[4,5-b]pyridine], the melting point fell in the range of 138 to 139 °C.

`CCCCCS(=O)(=O)NC(=O)c1ccc2sc(C)c(Cc3cccc(Cl)c3Cl)c2c1` [Example 2, 3-(2,3-dichlorobenzyl)-2-methyl-5-(n-pentanesulfonylcarbamoyl)benzo[b]thiophene] came in with a melting point of 196 to 197 °C.

Molecule `CCCCS(=O)(=O)NC(=O)c1ccc2nc(C)n(Cc3ccc(Br)cc3Cl)c2n1` [Example 12-2, 3-(4-bromo-2-chlorobenzyl)-5-(n-butanesulfonylcarbamoyl)-2-methyl-3H-imidazo[4,5-b]pyridine] came in with a melting point of 165 to 166 °C.

Consider `Cc1nc2ccc(C(=O)NS(=O)(=O)c3ccccc3)nc2n1Cc1ccc(COc2ccccc2)cc1Cl` [Example 118, 5-(benzenesulfonylcarbamoyl)-3-(2-chloro-4-((phenyloxy)methyl)-benzyl)-2-methyl-3H-imidazo[4,5-b]pyridine], for which the melting point was 203 to 205 °C.

As for `Cc1nc2ccc(C(=O)NS(=O)(=O)c3ccc(Br)s3)nc2n1Cc1ccc(-c2ccccc2)cc1Cl` [Example 67-5, 5-[(5-bromothiophen-2-yl)sulfonylcarbamoyl]-3-(2-chloro-4-phenylbenzyl)-2-methyl-3H-imidazo[4,5-b]pyridine], the melting point lay within 205 to 207 °C.

In the case of `Cc1oc2ccc(C(=O)NS(=O)(=O)c3ccccc3)cc2c1Cc1ccc(Cl)cc1Cl` [Example 30-2, 5-(benzenesulfonylcarbamoyl)-3-(2,4-dichlorobenzyl)-2-methylbenzo[b]furan], the melting point lay within 208.5 to 209.5 °C.

Take `CCCCCS(=O)(=O)NC(=O)c1cc(C)c2nc(C)n(Cc3ccc(-c4ccccc4)cc3Cl)c2n1` [Example 184, 3-(2-chloro-4-phenylbenzyl)-2,7-dimethyl-5-(1-pentanesulfonylcarbamoyl)-3H-imidazo[4,5-b]pyridine]: the melting point lay within 227 to 228 °C.

`CCCCCS(=O)(=O)NC(=O)c1ccc2c(c1)N(Cc1ccc(Cl)cc1Cl)C(C)=NC2.Cl` returned a melting point of 184 to 186 °C.

Turning to `COc1ccc(Cn2c(C)nc3ccc(C(=O)NS(=O)(=O)c4ccccc4)nc32)c(Cl)c1` [Example 78, 5-(benzenesulfonylcarbamoyl)-3-(2-chloro-4-methoxybenzyl)-2-methyl-3H-imidazo[4,5-b]pyridine], the melting point fell in the range of 151 to 152 °C.

Turning to `Cc1nc2ccc(C(=O)NS(=O)(=O)c3ccccc3)nc2n1Cc1ccc(OC(C)C)cc1Cl` [Example 79, 5-(benzenesulfonylcarbamoyl)-3-(2-chloro-4-isopropoxybenzyl)-2-methyl-3H-imidazo[4,5-b]pyridine], the melting point lay in the range of 177 to 179 °C.

Molecule `CCCCCS(=O)(=O)NC(=O)c1cccc2c(CC)c(Cc3ccc(Cl)cc3Cl)sc12` [Example 38-1, 2-(2,4-dichlorobenzyl)-3-ethyl-7-(1-n-pentanesulfonylcarbamoyl)benzo[b]thiophene] showed a melting point of 176 to 178 °C.

On to `Cc1nc2ccc(C(=O)NS(=O)(=O)c3ccc(Br)s3)nc2n1Cc1ccc(Cl)cc1Cl` [Example 65-5, 5-((5-bromothiophen-2-yl)sulfonylcarbamoyl)-3-(2,4-dichlorobenzyl)-2-methyl-3H-imidazo[4,5-b]pyridine], for which the melting point was in the range of 168 to 169 °C.

`CCCCS(=O)(=O)NC(=O)c1ccc2nc(C)n(Cc3ccc(-c4ccccc4)cc3Cl)c2n1` [Example 29-2, 5-(n-butanesulfonylcarbamoyl)-3-(2-chloro-4-phenylbenzyl)-2-methyl-3H-imidazo[4,5-b]pyridine] yielded a melting point of 199 to 200 °C.

Turning to `Cc1nc2ccc(C(=O)NS(=O)(=O)c3ccccc3)nc2n1Cc1ccc(-c2cccs2)cc1Cl` [Example 68, 5-(benzenesulfonylcarbamoyl)-3-[2-chloro-4-(thiophen-2-yl)benzyl]-2-methyl-3H-imidazo[4,5-b]pyridine], the melting point lay within 225 to 226 °C.

As to `CCc1ccc(Cn2c(C)nc3ccc(C(=O)NS(=O)(=O)/C=C/c4ccccc4)nc32)c(Cl)c1` [Example 70-4, (E)-3-(2-chloro-4-ethylbenzyl)-2-methyl-5-[(2-phenylethenyl)sulfonylcarbamoyl]-3H-imidazo[4,5-b]pyridine], the melting point lay within 184 to 185 °C.

Molecule `Cc1ccc(Cn2c(C)nc3ccc(C(=O)NS(=O)(=O)c4ccccc4)nc32)c(Cl)c1` [Example 72, 5-(benzenesulfonylcarbamoyl)-3-(2-chloro-4-methylbenzyl)-2-methyl-3H-imidazo[4,5-b]pyridine] registered a melting point of 213 to 215 °C.

Molecule `CCCCS(=O)(=O)NC(=O)c1ccc2c(=O)n(C)c(Cc3ccc(Cl)cc3Cl)nc2c1` [Example 45, 7-(1-n-butanesulfonyl-carbamoyl)-2-(2,4-dichlorobenzyl)-3-methyl-4(3H)-quinazolinone] registered a melting point of 244 to 246 °C.

The molecule `CCCCS(=O)(=O)NC(=O)c1ccc2nc(C)n(Cc3ccc(Cl)cc3Cl)c2n1` [Example 8-2, 5-(n-butanesulfonylcarbamoyl)-3-(2,4-dichlorobenzyl)-2-methyl-3H-imidazo[4,5-b]pyridine] came in with a melting point of 153 to 154 °C.
